The record followed here is patent US8853207B2 (Development Center for Biotechnology, priority 2012, dated 2014).

Structures are written as SMILES. Where a name gives a salt, the structure may show the parent alone.

For the assay, the target named is FLT3 kinase (FLT3 kinase domain alone, Upstate) (Homo sapiens (Human), UniProt P36888). The assay is described as follows: FLT3 kinase assay ([33P] incorporation into substrate). It counts as biochemical. Conditions: 100 μM ATP, 30° C., 30 minutes; read-out: IC50 against FLT3. Here is the method: Inhibition of FLT3 kinase activity by compounds disclosed herein was quantified by measuring the amount of [^33P] incorporated into the substrate in the presence of a test compound. Briefly, a reaction mixture of 25 μL final volume containing 5 ng of FLT3 kinase (FLT3 kinase domain alone, Upstate), 5 μg of the substrate [(Poly (Glu-Tyr, 4:1), Sigma], kinase reaction buffer (20 mM MOPS pH 7.0, 1 mM EDTA, 5% glycerol, 0.01% Brij-35, 0.1% β-mercaptoethanol, 1 mg/mL BSA, 100 μM ATP, 0.1 μCi per well [^33P]-γ-ATP (2,500-3,000 Ci/mmol)), and a test compound (diluted from 9 μM to the desired final concentration by 4% DMSO) or DMSO (as the control) was incubated at 30° C. for 30 minutes. The reaction was stopped by adding 5 μL of 3% phosphoric acid solution. The resultant solution (30 μL) was later harvested by a UniFilter Plate GF/B (PerkinElmer) followed by adding 30 μL of the scintillation cocktail (MicroScint 20, PerkinElmer) to the well. The radioactivity retained on the filter membrane was measured by a luminescence counter (PerkinElmer). The results were analyzed by using linear regression software (GraphPad Prism 4; GraphPad Software Inc.).
FLT3 kinase (FLT3 kinase domain alone, Upstate), sequence (P36888 610-943): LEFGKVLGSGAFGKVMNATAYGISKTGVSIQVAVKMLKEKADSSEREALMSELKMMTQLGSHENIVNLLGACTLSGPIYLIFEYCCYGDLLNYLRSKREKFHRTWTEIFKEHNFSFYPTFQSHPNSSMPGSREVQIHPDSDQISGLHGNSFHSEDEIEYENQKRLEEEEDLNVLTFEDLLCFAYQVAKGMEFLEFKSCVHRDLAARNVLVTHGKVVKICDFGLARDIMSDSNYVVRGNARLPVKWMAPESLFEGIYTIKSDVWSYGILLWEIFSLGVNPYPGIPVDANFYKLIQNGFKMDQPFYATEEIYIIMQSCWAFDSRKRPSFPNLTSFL
For the compound `Ic1ccc(Nc2n[nH]c3c2Cc2sccc2-3)cc1` [Example-22, (4,7-Dihydro-1-thia-4,5-diaza-cyclopenta[a]pentalen-6-yl)-(4-iodo-phenyl)-amine], the IC50 was in the range of 100 to 499 nM.
In the case of `Clc1cc(Cl)cc(-c2ccc(-c3n[nH]c4c3Cc3sccc3-4)cc2)c1` [Example-18, 6-(3′,5′-Dichloro-biphenyl-4-yl)-4,7-dihydro-1-thia-4,5-diaza-cyclopenta[a]pentalene] it was 100 to 499 nM; in that of `FC(F)(F)Oc1ccccc1Nc1n[nH]c2c1Cc1sccc1-2` [Example-48, (4,7-Dihydro-1-thia-4,5-diaza-cyclopenta[a]pentalen-6-yl)-(2-trifluoromethoxy-phenyl)-amine], above 1000 nM.
In the case of `c1ccc(-c2n[nH]c3c2Cc2sccc2-3)nc1` [Example-58, 6-Pyridin-2-yl-4,7-dihydro-1-thia-4,5-diaza-cyclopenta[a]pentalene] it was 100 to 499 nM.
In the case of `Brc1ccc(Nc2n[nH]c3c2Cc2sccc2-3)cc1` [Example-20, (4-Bromo-phenyl)-(4,7-dihydro-1-thia-4,5-diaza-cyclopenta[a]pentalen-6-yl)-amine], the IC50 was 100 to 499 nM.
In the case of `Brc1ccc(-c2n[nH]c3c2Cc2sc(Br)cc2-3)cn1` [Example-67, 2-Bromo-6-(6-bromo-pyridin-3-yl)-4,7-dihydro-1-thia-4,5-diaza-cyclopenta[a]pentalene] it was 100 to 499 nM; in that of `COc1ccccc1Nc1n[nH]c2c1Cc1sccc1-2` [Example-45, (4,7-Dihydro-1-thia-4,5-diaza-cyclopenta[a]pentalen-6-yl)-(2-methoxy-phenyl)-amine], 100 to 499 nM; in that of `COc1ccc(-c2cc3c(s2)Cc2c(-c4ccc(OC)cc4)n[nH]c2-3)cc1` [Example-73, 2,6-Bis-(4-methoxy-phenyl)-4,7-dihydro-1-thia-4,5-diaza-cyclopenta[a]pentalene], below 100 nM.
On to `Clc1cc(Cl)cc(-c2n[nH]c3c2Cc2sccc2-3)c1` [Example-57, 6-(3,5-Dichloro-phenyl)-4,7-dihydro-1-thia-4,5-diaza-cyclopenta[a]pentalene], for which the concentration for half-maximal inhibition (IC50) was in the range of 100 to 499 nM.
The value for `COc1ccc(Nc2ccc(-c3n[nH]c4c3Cc3sccc3-4)cc2)cc1` [Example-8, [4-(4,7-Dihydro-1-thia-4,5-diaza-cyclopenta[a]pentalen-6-yl)-phenyl]-(4-methoxy-phenyl)-amine] was 100 to 499 nM; that for `Brc1cccc(Nc2n[nH]c3c2Cc2sccc2-3)c1` [Example-36, (3-Bromo-phenyl)-(4,7-dihydro-1-thia-4,5-diaza-cyclopenta[a]pentalen-6-yl)-amine] was 100 to 499 nM.
In the case of `Brc1ccc(-c2[nH]nc3c2Cc2sccc2-3)cc1` [Example-1, 6-(4-Bromo-phenyl)-5,7-dihydro-1-thia-4,5-diaza-cyclopenta[a]-pentalene] it was below 100 nM.
The value for `c1cncc(Nc2ccc(-c3n[nH]c4c3Cc3sccc3-4)cc2)c1` [Example-63, [4-(4,7-Dihydro-1-thia-4,5-diaza-cyclopenta[a]pentalen-6-yl)-phenyl]-pyridin-3-yl-amine] was below 100 nM; that for `FC(F)(F)c1cc(-c2n[nH]c3c2Cc2sccc2-3)cc(C(F)(F)F)c1` [Example-43, 6-(3,5-Bis-trifluoromethyl-phenyl)-4,7-dihydro-1-thia-4,5-diaza-cyclopenta[a]pen talene] was above 1000 nM; that for `c1cc(-c2n[nH]c3c2Cc2sccc2-3)co1` [Example-17, 6-Furan-3-yl-4,7-dihydro-1-thia-4,5-diaza-cyclopenta[a]pentalene] was 500 to 1000 nM.
Consider `Brc1ccccc1-c1n[nH]c2c1Cc1sccc1-2` [Example-44, 6-(2-Bromo-phenyl)-4,7-dihydro-1-thia-4,5-diaza-cyclopenta[a]pentalene], for which the IC50 is above 1000 nM.
`c1cc2c(s1)Cc1c(-c3ccc(N4CCOCC4)cc3)n[nH]c1-2` [Example-85, 6-(4-Morpholin-4-yl-phenyl)-4,7-dihydro-1-thia-4,5-diaza-cyclopenta[a]pentalene]: the half-inhibitory concentration (IC50) is below 100 nM.
Turning to `O=[N+]([O-])c1ccc(-c2n[nH]c3c2Cc2sccc2-3)cc1` [Example-5, 6-(4-Nitro-phenyl)-4,7-dihydro-1-thia-4,5-diaza-cyclopenta[a]pentalene], the IC50 was 100 to 499 nM.
In the case of `Nc1ccc(-c2n[nH]c3c2C(=O)c2sccc2-3)cc1` [Example-56, 6-(4-Amino-phenyl)-4H-1-thia-4,5-diaza-cyclopenta[a]pentalen-7-one] it was below 100 nM; in that of `COc1cccc(-c2n[nH]c3c2Cc2sccc2-3)c1` [Example-3, 6-(3-Methoxy-phenyl)-4,7-dihydro-1-thia-4,5-diaza-cyclopenta[a]pentalene], 100 to 499 nM; in that of `COc1ccc(-c2n[nH]c3c2Cc2sc(-c4ccc(F)cc4)cc2-3)cc1` [Example-71, 2-(4-Fluoro-phenyl)-6-(4-methoxy-phenyl)-4,7-dihydro-1-thia-4,5-diaza-cyclopenta[a]pentalene], below 100 nM.
In the case of `Brc1cccc(-c2n[nH]c3c2Cc2sccc2-3)c1` [Example-47, 6-(3-Bromo-phenyl)-4,7-dihydro-1-thia-4,5-diaza-cyclopenta[a]pentalene] it was below 100 nM; in that of `COc1ccccc1-c1n[nH]c2c1Cc1sccc1-2` [Example-51, 6-(2-Methoxy-phenyl)-4,7-dihydro-1-thia-4,5-diaza-cyclopenta[a]pentalene], below 100 nM; in that of `Fc1ccc(Nc2ccc(-c3n[nH]c4c3Cc3sccc3-4)cc2)cc1` [Example-7, [4-(4,7-Dihydro-1-thia-4,5-diaza-cyclopenta[a]pentalen-6-yl)-phenyl]-(4-fluoro-phenyl)-amine], 100 to 499 nM.
As for `COc1ccc(-c2n[nH]c3c2Cc2sc(-c4ccc(O)c(OC)c4)cc2-3)cc1` [Example-75, 2-Methoxy-4-[6-(4-methoxy-phenyl)-4,7-dihydro-1-thia-4,5-diaza-cyclopenta[a]pentalen-2-yl]-phenol], the IC50 is below 100 nM.
Consider `c1cc(Nc2ccc(-c3n[nH]c4c3Cc3sccc3-4)cc2)ccn1` [Example-62, [4-(4,7-Dihydro-1-thia-4,5-diaza-cyclopenta[a]pentalen-6-yl)-phenyl]-pyridin-4-yl-amine hydrochloride], for which the IC50 is below 100 nM.
The value for `C(=Cc1ccc(-c2n[nH]c3c2Cc2sccc2-3)cc1)c1ccccc1` [Example-12, 6-(4-Styryl-phenyl)-4,7-dihydro-1-thia-4,5-diaza-cyclopenta[a]pentalene] was above 1000 nM; that for `Clc1ccc(Nc2n[nH]c3c2Cc2sccc2-3)c(Cl)c1` [Example-21, (2,4-Dichloro-phenyl)-(4,7-dihydro-1-thia-4,5-diaza-cyclopenta[a]pentalen-6-yl)-amine] was 500 to 1000 nM; that for `COc1ccc(Nc2n[nH]c3c2Cc2sccc2-3)cc1` [Example-23, (4,7-Dihydro-1-thia-4,5-diaza-cyclopenta[a]pentalen-6-yl)-(4-methoxy-phenyl)-amine] was above 1000 nM.
The value for `Clc1cccc(Nc2[nH]nc3c2Cc2sccc2-3)c1` [Example-25, (3-Chloro-phenyl)-(4,7-dihydro-1-thia-4,5-diaza-cyclopenta[a]pentalen-6-yl)-amine] was below 100 nM.
As for `COc1cccc(Nc2n[nH]c3c2Cc2sccc2-3)c1` [Example-26, (4,7-Dihydro-1-thia-4,5-diaza-cyclopenta[a]pentalen-6-yl)-(3-methoxy-phenyl)-amine], the IC50 is below 100 nM.
